In patent publication US4792545A, “Boholmycin antibiotic” (Bristol-Myers Company, priority 1986, dated 1988):
Values after ≈ are worked out from the molar mass of the structure shown. Like-named read-outs stand apart in the source and are kept apart here.

Assays:
[1] = tested on: experimental infections produced by S. aureus, E. coli and K. pneumoniae; experiment: in vivo activity in mice, Table 5 overall; conditions: i.m.
E. coli Juhl [2] = experiment: MIC by serial agar dilution; assay type: cell-based; conditions: medium A: Nutrient agar
K. pneumoniae D-11 [3] = experiment: in vivo efficacy in mice against experimental infection; conditions: mice, i.m. just before challenge, K. pneumoniae D-11, 5 days observation
M. luteus PCI-1001 = experiment: MIC by serial agar dilution; assay type: cell-based
S. aureus Smith [4] = experiment: MIC by serial agar dilution; assay type: cell-based
K. pneumoniae D-11 [5] = experiment: MIC by serial agar dilution; assay type: cell-based
P. aeruginosa A20601 = experiment: MIC by serial agar dilution; assay type: cell-based; conditions: P. aeruginosa A20601, kanamycin resistant strain, medium A: Nutrient agar
Mycobacterium 607 D87 = experiment: MIC by serial agar dilution; assay type: cell-based
M. flavus D-12 = experiment: MIC by serial agar dilution; assay type: cell-based
B. subtilis ATCC6633 = experiment: MIC by serial agar dilution; assay type: cell-based; conditions: medium A: Nutrient agar
S. aureus A20239 = experiment: MIC by serial agar dilution; assay type: cell-based
B. anthracis IID-115 = experiment: microbe, parasite or virus in culture; assay type: cell-based
S. aureus Smith [6] = experiment: in vivo efficacy in mice against experimental infection; conditions: mice, i.m. just before challenge, S. aureus Smith, 5 days observation
Mycobacterium ranae = experiment: MIC by serial agar dilution; assay type: cell-based
E. coli A20664 = experiment: MIC by serial agar dilution; assay type: cell-based; conditions: E. coli A20664, kanamycin resistant strain, medium A: Nutrient agar
P. mirabilis A9554 = experiment: MIC by serial agar dilution; assay type: cell-based; conditions: medium A: Nutrient agar
E. coli NIHJ = experiment: MIC by serial agar dilution; assay type: cell-based; conditions: medium A: Nutrient agar
E. cloacae A21006 = experiment: MIC by serial agar dilution; assay type: cell-based; conditions: E. cloacae A21006, kanamycin resistant strain, medium A: Nutrient agar
S. aureus 209P = experiment: MIC by serial agar dilution; assay type: cell-based
E. coli K-12 = experiment: MIC by serial agar dilution; assay type: cell-based
E. coli Juhl [7] = experiment: in vivo efficacy in mice against experimental infection
P. vulgaris A9436 = experiment: MIC by serial agar dilution; assay type: cell-based; conditions: medium A: Nutrient agar
K. pneumoniae A9678 = experiment: MIC by serial agar dilution; assay type: cell-based; conditions: medium A: Nutrient agar
Mycobacterium phlei = experiment: MIC by serial agar dilution; assay type: cell-based
P. aeruginosa A9930 = experiment: MIC by serial agar dilution; assay type: cell-based; conditions: medium A: Nutrient agar
S. marcescens A22302 = experiment: MIC by serial agar dilution; assay type: cell-based
Mycobacterium 607 D46 = experiment: MIC by serial agar dilution; assay type: cell-based; conditions: Mycobacterium 607 D46, kanamycin resistant strain, medium B: No. 1001 medium
P. aeruginosa A9843A = experiment: microbe, parasite or virus in culture; assay type: cell-based
S. marcescens A20019 = experiment: MIC by serial agar dilution; assay type: cell-based
E. coli JR35/c600 = experiment: MIC by serial agar dilution; assay type: cell-based
E. cloacae A20364 = experiment: MIC by serial agar dilution; assay type: cell-based; conditions: E. cloacae A20364, kanamycin resistant strain, medium A: Nutrient agar
E. coli D64 = experiment: stimulating growth of streptomycin-dependent E. coli D64 (paper disc); assay type: cell-based; conditions: 37° C., 45 hours; for Growth zone vs E. coli D64, hazy growth zone: value in parentheses
From the text: The results are shown in Table 4 wherein the term "boholmycin" is used for short in referring to boholmycin dihydrochloride tetrahydrate.

B. subtilis PCI-219 = experiment: inhibiting growth of B. subtilis PCI-219 (paper disc); assay type: cell-based; conditions: Bacillus subtilis, PCI219, 18 h, read-out: Inhibition zone vs B. subtilis PCI-219
Experimental: Boholmycin dihydrochloride tetrahydrate was tested in comparison with streptomycin, glebomycin, myomycin B and kanamycin in respect to stimulating growth of E. coli D64 and in respect to inhibiting growth of B. subtilis PCI-219. The results are shown in Table 4 wherein the term "boholmycin" is used for short in referring to boholmycin dihydrochloride tetrahydrate.
*^1 8 mm paper disc containing 35 μl of test solution
*^3 Incubation at 28° C. for 18 hours

[8] = Escherichia coli, read-out: MIC
[9] = Pseudomonas aeruginosa, read-out: MIC
[10] = Enterobacter cloacae, read-out: MIC

Q: Which results are given for `CCC(=O)N[C@@H]1C(CO)O[C@H](O[C@@H]([C@H](N)[C@H](O)CO)[C@@H](O)CN)C(O)C1O` (stereo partly drawn) [sorbistin A1]?
A: in vivo activity compared with streptomycin and kanamycin [1]: much less active than streptomycin and kanamycin; MIC (E. coli Juhl [2]): 50 µg/mL (≈ 126 µM); PD50 (K. pneumoniae D-11 [3]): 75 mg/kg; MIC (M. luteus PCI-1001; M. luteus PCI-1001, medium A: Nutrient agar): 50 µg/mL (≈ 126 µM); MIC (S. aureus Smith [4]; S. aureus Smith, medium A: Nutrient agar): 50 µg/mL (≈ 126 µM); MIC (K. pneumoniae D-11 [5]; medium A: Nutrient agar): 6.3 µg/mL (≈ 15.9 µM); MIC (P. aeruginosa A20601): 3.1 µg/mL (≈ 7.8 µM); MIC (Mycobacterium 607 D87; Mycobacterium 607 D87, medium B: No. 1001 medium): 50 µg/mL (≈ 126 µM); MIC (M. flavus D-12; medium A: Nutrient agar): 12.5 µg/mL (≈ 31.5 µM); MIC (B. subtilis ATCC6633): 50 µg/mL (≈ 126 µM); MIC (S. aureus A20239; S. aureus A20239, kanamycin resistant strain, medium A: Nutrient agar): 100 µg/mL (≈ 252 µM); MIC (B. anthracis IID-115; B. anthracis IID-115, medium A: Nutrient agar): 50 µg/mL (≈ 126 µM); PD50 (S. aureus Smith [6]): 50 mg/kg; MIC (Mycobacterium ranae; Mycobacterium ranae, medium B: No. 1001 medium): 50 µg/mL (≈ 126 µM); MIC (E. coli A20664): 25 µg/mL (≈ 62.9 µM); MIC (P. mirabilis A9554): 50 µg/mL (≈ 126 µM); MIC (E. coli NIHJ): 25 µg/mL (≈ 62.9 µM); MIC (E. cloacae A21006): 50 µg/mL (≈ 126 µM); MIC (S. aureus 209P; S. aureus 209P, medium A: Nutrient agar): 50 µg/mL (≈ 126 µM); MIC (E. coli K-12; medium A: Nutrient agar): 25 µg/mL (≈ 62.9 µM); PD50 (E. coli Juhl [7]; mice, i.m. just before challenge, E. coli Juhl, 5 days observation): 100 mg/kg; MIC (P. vulgaris A9436): 50 µg/mL (≈ 126 µM); MIC (K. pneumoniae A9678): 100 µg/mL (≈ 252 µM); MIC (Mycobacterium phlei; Mycobacterium phlei, medium B: No. 1001 medium): 25 µg/mL (≈ 62.9 µM); MIC (P. aeruginosa A9930): 12.5 µg/mL (≈ 31.5 µM); MIC (S. marcescens A22302; S. marcescens A22302, kanamycin resistant strain, medium A: Nutrient agar): 400 µg/mL (≈ 1010 µM); MIC (Mycobacterium 607 D46): 100 µg/mL (≈ 252 µM); MIC (P. aeruginosa A9843A; P. aeruginosa A9843A, medium A: Nutrient agar): 6.3 µg/mL (≈ 15.9 µM); MIC (S. marcescens A20019; S. marcescens A20019, medium A: Nutrient agar): > 200 µg/mL; MIC (E. coli JR35/c600; E. coli JR35/c600, kanamycin resistant strain, medium A: Nutrient agar): 25 µg/mL (≈ 62.9 µM); MIC (E. cloacae A20364): 50 µg/mL (≈ 126 µM)

Q: What does the source list for `[H]/N=C(/N)N[C@H]1[C@H](O)[C@@H](O)[C@H](O[C@@H]2O[C@@H](C)[C@](O)(C=O)[C@H]2O[C@@H]2O[C@@H](CO)[C@H](O)[C@@H](O)[C@@H]2NC)[C@@H](N/C(N)=N\[H])[C@@H]1O` [streptomycin]?
A: Growth zone vs E. coli D64, hazy growth zone (E. coli D64; 0.06 mg/ml): 14 mm; Growth zone vs E. coli D64 (E. coli D64; 0.25 mg/ml): 17 mm; Growth zone vs E. coli D64, hazy growth zone (E. coli D64; 0.25 mg/ml): 28 mm; MIC (E. coli Juhl [2]; [8]): 3.1 µg/mL (≈ 5.33 µM); ED50 (K. pneumoniae D-11 [3]; Klebsiella pneumoniae, D11, im, 120 h, read-out: PD50): 0.85 mg/kg; MIC (M. luteus PCI-1001; Micrococcus luteus, PCI1001): 3.1 µg/mL (≈ 5.33 µM); MIC (S. aureus Smith [4]; Staphylococcus aureus): 1.6 µg/mL (≈ 2.75 µM); MIC (K. pneumoniae D-11 [5]; Klebsiella pneumoniae, D11, medium A: Nutrient agar, read-out: MIC): 0.4 µg/mL (≈ 0.688 µM); MIC (P. aeruginosa A20601; [9]): 3.1 µg/mL (≈ 5.33 µM); MIC (Mycobacterium 607 D87; Mycobacterium, 607D87): 0.4 µg/mL (≈ 0.688 µM); MIC (M. flavus D-12; Micrococcus flavus, D12, medium A: Nutrient agar, read-out: MIC): 0.8 µg/mL (≈ 1.38 µM); MIC (B. subtilis ATCC6633; Bacillus subtilis, read-out: MIC): 0.8 µg/mL (≈ 1.38 µM); MIC (S. aureus A20239; Staphylococcus aureus, A20239): > 100 µg/mL; MIC (B. anthracis IID-115; Bacillus anthracis, IID115): 0.4 µg/mL (≈ 0.688 µM); ED50 (S. aureus Smith [6]; Staphylococcus aureus, im, 120 h, read-out: PD50): 1.9 mg/kg; MIC (Mycobacterium ranae; Mycobacterium): 0.4 µg/mL (≈ 0.688 µM); MIC (E. coli A20664; [8]): > 100 µg/mL; MIC (P. mirabilis A9554; Proteus mirabilis, read-out: MIC): 1.6 µg/mL (≈ 2.75 µM); MIC (E. coli NIHJ; [8]): 1.6 µg/mL (≈ 2.75 µM); MIC (E. cloacae A21006; [10]): > 100 µg/mL; MIC (S. aureus 209P; Staphylococcus aureus, 209P): 1.6 µg/mL (≈ 2.75 µM); MIC (E. coli K-12; Escherichia coli, K12, medium A: Nutrient agar, read-out: MIC): 1.6 µg/mL (≈ 2.75 µM); ED50 (E. coli Juhl [7]; Escherichia coli, im, 120 h, read-out: PD50): 1.4 mg/kg; MIC (P. vulgaris A9436; Proteus vulgaris, read-out: MIC): 0.4 µg/mL (≈ 0.688 µM); MIC (K. pneumoniae A9678; Klebsiella pneumoniae, read-out: MIC): 6.3 µg/mL (≈ 10.8 µM); MIC (Mycobacterium phlei; Mycolicibacterium phlei): 0.2 µg/mL (≈ 0.344 µM); MIC (P. aeruginosa A9930; [9]): > 100 µg/mL; MIC (S. marcescens A22302; Serratia marcescens, A22302): > 100 µg/mL; MIC (Mycobacterium 607 D46; read-out: MIC): 0.4 µg/mL (≈ 0.688 µM); MIC (P. aeruginosa A9843A; Pseudomonas aeruginosa, A9843A): > 100 µg/mL; MIC (S. marcescens A20019; Serratia marcescens, A20019): 25 µg/mL (≈ 43 µM); zone of inhibition at 60 µg/mL (B. subtilis PCI-219): 32 mm; zone of inhibition at 250 µg/mL (B. subtilis PCI-219): 35 mm; MIC (E. coli JR35/c600; Escherichia coli, JR35/C600): > 100 µg/mL; MIC (E. cloacae A20364; [10]): > 100 µg/mL
